Test results from US20080274202A1, “Compositions and Method for Brain Specific Targeted Delivery of Therapeutic Agents” (priority 2005, published 2008).

Test system: HOTCs
Experiment: HOTC maintenance in serum-free media with antibiotic
Format: cell-based
Details: by 21 DIV, in SFM
Protocol: HOTCs were prepared and maintained by initial incubation in serum-based media followed by transfer to a serum-free media (SFM) at 4 days in vitro (DIV). The transfer from serum-containing medium to SFM prevented neuronal loss from occurring after two weeks of culture (stability was measured by neuron-specific nuclear protein (NeuN)-based western blots), and prevented glial activation in the HOTCs. SFM contained Neurobasal medium ((96%) from Invitrogen) supplemented to 42 mM glucose, 1 mM glutamine (from Sigma), 2% B27 supplement, 10 μg/mL gentamicin and […] Fungizone (from Invitrogen). […] The SFM was changed twice a week and the HOTCs were incubated at 36° C. with 5% CO2-balance air. Slices were maintained to 21 DIV to allow cultures to mature, and used from 21-30 DIV.

For penicillin, the “CA3 field potentials from dentate gyrus stimulation” value was “no CA3 field potentials were seen” and the “pyramidal cell survival in HOTCs” value was “most pyramidal cells were dead”.
